The source of these data is patent publication US12686665B2, “Bicyclic fused ring derivative or salt thereof and pharmaceutical composition comprising same” (YUHAN CORPORATION, priority 2021, dated 2026).

Molecules are shown by their SMILES. Structures can show the parent of a compound that is named as a salt.

Holding throughout (assay type): biochemical
The target in assay [1] is T1, recombinant human Lysyl Oxidase-Like 2 (LOXL2) (Homo sapiens, UniProt Q9Y4K0).
T1 construct: purchased R&D systems
T1 sequence (Q9Y4K0 26-774): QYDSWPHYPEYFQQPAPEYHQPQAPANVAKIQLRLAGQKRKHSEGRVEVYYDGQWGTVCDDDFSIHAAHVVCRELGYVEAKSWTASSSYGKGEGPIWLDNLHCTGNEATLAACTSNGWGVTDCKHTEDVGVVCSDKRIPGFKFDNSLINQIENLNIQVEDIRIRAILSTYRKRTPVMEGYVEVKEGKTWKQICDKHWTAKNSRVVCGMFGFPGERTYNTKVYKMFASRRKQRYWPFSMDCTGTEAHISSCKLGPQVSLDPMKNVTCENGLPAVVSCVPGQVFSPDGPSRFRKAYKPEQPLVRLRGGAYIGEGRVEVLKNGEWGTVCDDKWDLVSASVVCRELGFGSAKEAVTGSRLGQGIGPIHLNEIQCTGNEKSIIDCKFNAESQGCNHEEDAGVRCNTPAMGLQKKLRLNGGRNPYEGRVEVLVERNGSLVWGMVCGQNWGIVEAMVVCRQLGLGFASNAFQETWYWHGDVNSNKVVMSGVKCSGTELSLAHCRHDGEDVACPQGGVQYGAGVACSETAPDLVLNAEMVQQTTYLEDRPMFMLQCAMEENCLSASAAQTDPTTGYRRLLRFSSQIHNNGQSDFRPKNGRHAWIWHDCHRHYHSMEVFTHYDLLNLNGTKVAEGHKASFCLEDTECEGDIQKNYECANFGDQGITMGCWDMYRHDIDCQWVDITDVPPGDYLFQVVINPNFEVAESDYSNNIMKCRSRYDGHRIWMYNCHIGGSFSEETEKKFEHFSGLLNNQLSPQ
Put plainly: Amplex Red HRP-coupled amine oxidase assay, recombinant human LOXL2. As to conditions: 60 min incubation with enzyme at 37° C., putrescine substrate, read-out: Inhibitory activity (IC50, nM) human LOXL2. The method, then: (§1) The activities of the compounds according to the present invention against recombinant human Lysyl Oxidase-Like 2 (recombinant human LOXL2, R&D systems) were evaluated by measuring the levels of hydrogen peroxide in the HRP (horseradish peroxidase) coupled reactions, with the Amplex Red Hydrogen Peroxide Assay Kit (Molecular Probes, Invitrogen, USA). The tests were carried out at 37° C., and putrescine was used as a substrate. In the HRP coupling reaction, the oxidation of 10-acetyl-3,7-dihydroxyphenoxazine (Amplex Red reagent) by hydrogen peroxide generates a fluorescent product, i.e., resorufin. Briefly, the test compounds were dissolved in dimethyl sulfoxide (DMSO) at a concentration of 20 mM. Dose-response measurements were carried out by serial dilutions in DMSO to generate a six-point curve. The upper concentration was adjusted according to the potency of the compound, and then diluted with the reaction buffer to obtain a final DMSO concentration of 1%. Purified human LOXL2 in 50 mM sodium phosphate buffer (pH7.4) was added to each well of a 96 well black plate. The test compounds dissolved in DMSO were incubated with the human LOXL2 enzyme at 37° C. for 60 minutes. After the incubation for 60 minutes, a reaction mixture containing 400 μM Amplex Red reagent, 30 mM putrescine, and 2 U/mL HRP in 50 mM sodium phosphate buffer (pH 7.4) was added to each well. Fluorescence was measured with a microplate reader (Flexstation3, Molecular Devices), under the conditions of excitation at 530 nm and emission at 590 nm, 1 hour after the addition of the mixture. Inhibition by each compound was measured as % reduction in signal, compared to the control without an inhibitor (diluted DMSO only). The data were fixed to a four-variable logistic model, and […] values were calculated using the GraphPad Prism program.

Assay [2] deals with T2, recombinant human MAO-B (monoamine oxidase-B) (Homo sapiens, UniProt P27338).
T2 construct: purchased Sigma-Aldrich
T2 sequence (P27338 1-520): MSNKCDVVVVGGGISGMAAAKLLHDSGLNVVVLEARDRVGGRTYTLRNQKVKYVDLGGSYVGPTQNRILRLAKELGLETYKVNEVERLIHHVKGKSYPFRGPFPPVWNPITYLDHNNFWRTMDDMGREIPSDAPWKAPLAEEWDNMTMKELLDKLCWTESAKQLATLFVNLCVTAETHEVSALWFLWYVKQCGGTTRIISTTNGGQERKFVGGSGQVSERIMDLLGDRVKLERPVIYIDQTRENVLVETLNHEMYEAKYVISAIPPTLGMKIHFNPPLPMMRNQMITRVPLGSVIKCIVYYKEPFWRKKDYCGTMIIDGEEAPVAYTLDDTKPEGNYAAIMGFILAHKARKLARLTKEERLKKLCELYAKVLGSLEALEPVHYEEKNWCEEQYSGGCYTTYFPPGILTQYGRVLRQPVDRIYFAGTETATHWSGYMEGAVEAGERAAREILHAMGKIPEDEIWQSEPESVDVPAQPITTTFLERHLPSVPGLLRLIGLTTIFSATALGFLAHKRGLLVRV
Put plainly: Amplex Red HRP-coupled amine oxidase assay, recombinant human MAO-B. As to conditions: 1 mM benzylamine substrate, read-out: Inhibitory activity (IC50, nM) MAO-B. The method, then: as §1
(§2) And, the activities of the compounds according to the present invention against recombinant human MAO-A (monoamine oxidase-A, Sigma-Aldrich) and recombinant human MAO-B (monoamine oxidase-B, Sigma-Aldrich) were evaluated in a similar manner to the activity evaluation method for recombinant human LOXL2, using 0.5 mM tyramine and 1 mM benzylamine as a substrate, respectively. In addition, the activities of the compounds according to the present invention against recombinant human DAO (diamine oxidase, R&D systems) were evaluated in a similar manner to the activity evaluation method for recombinant human LOXL2, using 1 mM putrescine as a substrate.

In assay [3] the target is T3, recombinant human DAO (diamine oxidase) (Homo sapiens, UniProt P19801).
T3 construct: purchased R&D systems
T3 sequence (P19801 20-751): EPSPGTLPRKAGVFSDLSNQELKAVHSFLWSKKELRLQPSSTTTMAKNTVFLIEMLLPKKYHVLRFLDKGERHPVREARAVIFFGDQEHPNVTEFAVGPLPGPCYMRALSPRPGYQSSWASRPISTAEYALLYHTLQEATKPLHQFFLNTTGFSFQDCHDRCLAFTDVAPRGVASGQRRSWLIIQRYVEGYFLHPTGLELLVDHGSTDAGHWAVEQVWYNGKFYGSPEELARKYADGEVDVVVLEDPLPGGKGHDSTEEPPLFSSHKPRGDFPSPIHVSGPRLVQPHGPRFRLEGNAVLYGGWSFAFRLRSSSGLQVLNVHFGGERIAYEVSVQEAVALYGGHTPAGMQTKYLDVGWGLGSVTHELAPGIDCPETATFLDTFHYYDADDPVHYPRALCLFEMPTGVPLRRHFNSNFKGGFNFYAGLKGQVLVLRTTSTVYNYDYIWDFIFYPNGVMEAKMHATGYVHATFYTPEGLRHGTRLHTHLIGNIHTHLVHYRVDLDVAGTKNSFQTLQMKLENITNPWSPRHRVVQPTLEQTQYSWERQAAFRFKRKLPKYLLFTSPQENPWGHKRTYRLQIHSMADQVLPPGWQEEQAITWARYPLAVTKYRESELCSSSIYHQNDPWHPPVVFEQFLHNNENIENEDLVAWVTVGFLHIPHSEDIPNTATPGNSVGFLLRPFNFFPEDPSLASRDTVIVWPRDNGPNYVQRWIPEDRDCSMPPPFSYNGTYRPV
Put plainly: Amplex Red HRP-coupled amine oxidase assay, recombinant human DAO. The conditions noted are these: 1 mM putrescine substrate, read-out: Inhibitory activity (IC50, nM) DAO. The method, then: as §1, §2

Take `COC(=O)c1cc(-c2cc(S(=O)(=O)NC3CC3)ccc2OC)c2nnn(C/C(F)=C/CN)c2c1` [Example 120, methyl (Z)-1-(4-amino-2-fluorobut-2-en-1-yl)-4-(5-(N-cyclopropylsulfamoyl)-2-methoxyphenyl)-1H-benzo[d][1,2,3]triazol-6-carboxylate hydrochloride]: the IC50 in assay [1] was found to be 17.1 nM; in assay [2], 97000 nM; in assay [3], 2830 nM.

Regarding `CN(C)S(=O)(=O)c1cccc(-c2cc(C(F)(F)F)cc3c2nnn3C/C(F)=C/CN)c1` [Example 196, (Z)-3-(1-(4-amino-2-fluorobut-2-en-1-yl)-6-(trifluoromethyl)-1H-benzo[d][1,2,3]triazol-4-yl)—N,N-dimethylbenzenesulfonamide hydrochloride], the results for the IC50 in assay [1] and in assay [3] were 34 nM and 3150 nM, respectively. On the same counts, the results for `Cn1nccc1-c1cc(C#N)cc2c1nnn2C/C(F)=C/CN` [Example 211, (Z)-1-(4-amino-2-fluorobut-2-en-1-yl)-4-(1-methyl-1H-pyrazol-5-yl)-1H-benzo[d][1,2,3]triazol-6-carbonitrile hydrochloride] are 350 nM and 1730 nM. The like results for `N#Cc1cc(-c2cncnc2)c2nnn(C/C(F)=C/CN)c2c1` [Example 210, (Z)-1-(4-amino-2-fluorobut-2-en-1-yl)-4-(pyrimidin-5-yl)-1H-benzo[d][1,2,3]triazol-6-carbo nitrile hydrochloride] were, in that order, 264 nM and 432 nM. On to `N#Cc1cc(-c2cc(CO)ccc2F)c2nnn(C/C(F)=C/CN)c2c1` [Example 206, (Z)-1-(4-amino-2-fluorobut-2-en-1-yl)-4-[2-fluoro-5-(hydroxymethyl)phenyl]-1H-benzo[d][1,2,3]triazol-6-carbonitrile hydrochloride], for which the results for the half-inhibitory concentration (IC50) in assay [1] and in assay [3] were 200 nM and 1960 nM, respectively. The like results for `N#Cc1cc(-c2cccc(CO)c2Cl)c2nnn(C/C(F)=C/CN)c2c1` [Example 207, (Z)-1-(4-amino-2-fluorobut-2-en-1-yl)-4-[2-chloro-3-(hydroxymethyl)phenyl-1H-benzo[d][1,2,3]triazol-6-carbonitrile hydrochloride] were, in that order, 281 nM and 7440 nM. Regarding `CCn1nccc1-c1cc(C(F)(F)F)cc2c1ncn2C/C(F)=C/CN` [Example 177, (Z)-4-(4-(1-ethyl-1H-pyrazol-5-yl)-6-(trifluoromethyl)-1H-benzo[d]imidazol-1-yl]-3-fluoro-but-2-en-1-amine hydrochloride], in assay [1], the IC50 is 419 nM. Same read-out and setting: as for `NC/C=C(\F)Cn1nnc2c(-c3cncc(Cl)c3)cc(C(F)(F)F)cc21` [Example 201, (Z)-4-(4-(5-chloropyridin-3-yl)-6-(trifluoromethyl)-1H-benzo[d][1,2,3]triazol-1-yl)-3-fluorobut-2-en-1-amine hydrochloride], the figure is 142 nM; as for `COC(=O)c1cc(-c2ccc(OC)c(S(=O)(=O)N(C)C)c2)c2nnn(C/C(F)=C/CN)c2c1` [Example 114, methyl (Z)-1-(4-amino-2-fluorobut-2-en-1-yl)-4-(3-(N,N-dimethylsulfamoyl)-4-methoxyphenyl)-1H-benzo[d][1,2,3]triazol-6-carboxylate hydrochloride], 18.6 nM; as for `COC(=O)c1cc(-c2cccc(S(=O)(=O)N(C)C)c2)c2nnn(C/C(F)=C/CN)c2c1` [Example 124, methyl (Z)-1-(4-amino-2-fluorobut-2-en-1-yl)-4-(3-(N,N-dimethylsulfamoyl)phenyl)-1H-benzo[d][1,2,3]triazol-6-carboxylate hydrochloride], 14.2 nM. Regarding `COC(=O)c1cc(-c2cccc(S(=O)(=O)NC3CC3)c2)c2nnn(C/C(F)=C/CN)c2c1` [Example 122, methyl (Z)-1-(4-amino-2-fluorobut-2-en-1-yl)-4-(3-(N-cyclopropylsulfamoyl)phenyl)-1H-benzo[d][1,2,3]triazol-6-carboxylate hydrochloride], the half-inhibitory concentration (IC50) in assay [1] was determined as 32.2 nM. In the case of `CON(C)C(=O)c1cc(-c2cccc(S(=O)(=O)N(C)C)c2)c2nnn(C/C(F)=C/CN)c2c1` [Example 139, (Z)-1-(4-amino-2-fluorobut-2-en-1-yl)-4-(3-(N,N-dimethylsulfamoyl)phenyl)-N-methoxy-N-methyl-1H-benzo[d][1,2,3]triazol-6-carboxamide], in assay [1], the IC50 stood at 69.6 nM. Still for that read-out and setting: the same measure for `N#Cc1cc(-c2cccc(CO)c2Cl)c2ncn(C/C(F)=C/CN)c2c1` [Example 186, (Z)-1-(4-amino-2-fluoro-2-but-1-yl)-4-(2-chloro-3-(hydroxymethyl)phenyl)-1H-benzo[d]imidazol-6-carbonitrile hydrochloride]: 109 nM.
